Assay results published in the NIST ThermoML archive (doi:10.1016/j.jct.2012.07.015).
± gives the expanded uncertainty stated by the source.

What was measured:
[1] = for viscosity / mass density: 101.33 kPa; for viscosity / mass density / surface tension liquid-gas: Liquid; for mass density: Vibrating tube method
[2] = Molar enthalpy of transition or fusion; details: Crystal; DSC
[3] = molar heat capacity at constant pressure; details: 101.33 kPa, Liquid, Small sample (50 mg) DSC

CCCCCC[n+]1ccc(C#N)cc1.O=S(=O)([N-]S(=O)(=O)C(F)(F)F)C(F)(F)F [1-hexyl-4-cyanopyridinium bis(trifluoromethylsulfonyl)imide]
Details | Glass transition temperature [°C] | mass density [kg/m3] | molar heat capacity at constant pressure [J/K/mol] | surface tension liquid-gas [mN/m] | viscosity [mPa·s]
[1], 293.15 K | – | 1411.6 ± 1.8 | – | – | 1065.6 ± 130
[1], 298.15 K | – | 1407.1 ± 1.8 | – | 30.6 ± 0.92 | 704.2 ± 76
[1], 303.15 K | – | 1402.6 ± 1.8 | – | – | 481.8 ± 44
[1], 308.15 K | – | 1398.1 ± 1.8 | – | 30.25 ± 0.91 | 340.3 ± 27
[1], 313.15 K | – | 1393.6 ± 1.8 | – | – | 235.8 ± 15
[1], 318.15 K | – | 1389.1 ± 1.7 | – | 29.89 ± 0.9 | 175.4 ± 9.1
[1], 323.15 K | – | 1384.8 ± 1.7 | – | – | 133.3 ± 5.5
[1], 328.15 K | – | 1380.5 ± 1.7 | – | 29.48 ± 0.89 | 103.3 ± 3.2
[1], 333.15 K | – | 1376.1 ± 1.7 | – | – | 81.7 ± 1.8
[1], 338.15 K | – | 1371.8 ± 1.7 | – | 29.01 ± 0.88 | 65.6 ± 1
[1], 343.15 K | – | 1367.5 ± 1.7 | – | – | 53.5 ± 0.6
[1], 348.15 K | – | 1363.2 ± 1.7 | – | – | 44.3 ± 0.6
[1], 353.15 K | – | 1358.9 ± 1.7 | – | – | 37.2 ± 0.5
[1], 358.15 K | – | 1354.6 ± 1.7 | – | – | 31.5 ± 0.4
[1], 363.15 K | – | 1350.3 ± 1.6 | – | – | 26.9 ± 0.4
[1], DTA | -51.9 ± 2 | – | – | – | –
[3], 298.15 K | – | – | 633 ± 64 | – | –
[3], 323.15 K | – | – | 643 ± 65 | – | –
[3], 353.15 K | – | – | 652 ± 66 | – | –

Details | Triple point temperature [K]
[1], Crystal, DTA | 280.2 ± 1.1

Details | Molar enthalpy of transition or fusion [kcal/mol]
[2] | 4.5 ± 0.139

CCCC[n+]1cccc(C#N)c1.O=S(=O)([N-]S(=O)(=O)C(F)(F)F)C(F)(F)F [1-butyl-3-cyanopyridinium bis(trifluoromethylsulfonyl)imide]
Details | Glass transition temperature [°C] | mass density [kg/m3] | molar heat capacity at constant pressure [J/K/mol] | surface tension liquid-gas [mN/m] | viscosity [mPa·s]
[1], 293.15 K | – | 1483.2 ± 12 | – | – | 1546.7 ± 220
[1], 298.15 K | – | 1478.7 ± 12 | – | 32 ± 1.2 | 983.7 ± 120
[1], 303.15 K | – | 1474.2 ± 12 | – | – | 659.7 ± 71
[1], 308.15 K | – | 1469.7 ± 12 | – | 31.77 ± 1.2 | 485.1 ± 46
[1], 313.15 K | – | 1465.3 ± 12 | – | – | 327.5 ± 26
[1], 318.15 K | – | 1460.8 ± 12 | – | 31.59 ± 1.2 | 240.7 ± 16
[1], 323.15 K | – | 1456.3 ± 12 | – | – | 182.6 ± 11
[1], 328.15 K | – | 1452 ± 12 | – | 31.39 ± 1.2 | 140.5 ± 6.9
[1], 333.15 K | – | 1447.7 ± 12 | – | – | 110.1 ± 4.5
[1], 338.15 K | – | 1443.4 ± 11 | – | 31.09 ± 1.2 | 87.9 ± 3
[1], 343.15 K | – | 1439.1 ± 11 | – | – | 67.6 ± 1.9
[1], 348.15 K | – | 1434.8 ± 11 | – | – | 55.3 ± 1.4
[1], 353.15 K | – | 1430.5 ± 11 | – | – | 45.8 ± 1.2
[1], 358.15 K | – | 1426.3 ± 11 | – | – | 38.5 ± 1
[1], 363.15 K | – | 1422 ± 11 | – | – | 32.8 ± 0.9
[1], DTA | -54.4 ± 2 | – | – | – | –
[3], 298.15 K | – | – | 586 ± 59 | – | –
[3], 323.15 K | – | – | 596 ± 60 | – | –
[3], 353.15 K | – | – | 605 ± 61 | – | –
